US20260028354A1, “TETRAHYDRONAPHTHALENE DERIVATIVES AS ESTROGEN RECEPTOR DEGRADERS” (REGENT OF THE UNIVERSITY OF MICHIGAN, priority 2022, published 2026)
Counter-ions that a name gives are not always drawn. Like-named read-outs stand apart in the source and are kept apart here.

Legend:
CRBN/DDB1 = CRBN/DDB1 (Homo sapiens (Human), UniProt Q96SW2); assay type: binding; conditions: His tagged CRBN+DDB1, Cy5-labeled Thalidomide probe, one hour; read-out: CRBN HTRF IC50
Description: The binding potency was determined using HTRF assay technology (Perkin Elmer). Compounds were serially diluted in DMSO and […] volume was transferred to white 384-well plate.

ER in MCF-7 cells = ER in MCF-7 cells (Homo sapiens (Human), UniProt P03372); assay: In-cell Western (ICW) ER degradation assay in MCF-7 cells; assay type: cell-based; conditions: for DC50: MCF-7, ER degradation, read-out: MCF7 DC50; for MCF7 Dmax: MCF-7, maximal ER degradation
Chain of ER in MCF-7 cells (P03372 whole entry): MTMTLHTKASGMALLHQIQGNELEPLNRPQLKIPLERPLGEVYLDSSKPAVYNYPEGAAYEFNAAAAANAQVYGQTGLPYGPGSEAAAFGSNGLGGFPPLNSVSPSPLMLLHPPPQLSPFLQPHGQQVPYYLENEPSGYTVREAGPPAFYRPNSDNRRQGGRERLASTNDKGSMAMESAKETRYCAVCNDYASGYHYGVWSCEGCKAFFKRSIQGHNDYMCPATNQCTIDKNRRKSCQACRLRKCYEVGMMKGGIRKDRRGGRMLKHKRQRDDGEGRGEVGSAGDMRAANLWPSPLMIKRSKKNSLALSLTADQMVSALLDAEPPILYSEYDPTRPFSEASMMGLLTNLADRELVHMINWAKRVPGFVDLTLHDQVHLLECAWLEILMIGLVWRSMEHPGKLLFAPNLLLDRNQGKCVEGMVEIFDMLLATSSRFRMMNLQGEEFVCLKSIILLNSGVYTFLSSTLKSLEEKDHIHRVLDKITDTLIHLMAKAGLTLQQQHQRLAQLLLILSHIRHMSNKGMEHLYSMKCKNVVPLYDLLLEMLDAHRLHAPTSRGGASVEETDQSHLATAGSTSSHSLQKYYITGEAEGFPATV

ER in T47D cells = ER in T47D cells (Homo sapiens (Human), UniProt P03372); assay: In-cell Western (ICW) ER degradation assay in T47D cells; assay type: cell-based; conditions: for DC50: ER degradation
Chain of ER in T47D cells (P03372 whole entry): as above

[1] = MCF7, MCF-7, maximal ER degradation, 16 hrs treatment, read-out: MCF7 Dmax
[2] = maximal ER degradation, 16 hrs treatment, read-out: T47D Dmax
[3] = MCF7, read-out: MCF7 Dmax, MCF-7, maximal ER degradation, 16 hrs treatment
[4] = read-out: T47D Dmax, T47D, maximal ER degradation, 16 hrs treatment
[5] = maximal ER degradation, 16 hrs treatment

Chain of CRBN/DDB1 (Q96SW2 whole entry, species assumed): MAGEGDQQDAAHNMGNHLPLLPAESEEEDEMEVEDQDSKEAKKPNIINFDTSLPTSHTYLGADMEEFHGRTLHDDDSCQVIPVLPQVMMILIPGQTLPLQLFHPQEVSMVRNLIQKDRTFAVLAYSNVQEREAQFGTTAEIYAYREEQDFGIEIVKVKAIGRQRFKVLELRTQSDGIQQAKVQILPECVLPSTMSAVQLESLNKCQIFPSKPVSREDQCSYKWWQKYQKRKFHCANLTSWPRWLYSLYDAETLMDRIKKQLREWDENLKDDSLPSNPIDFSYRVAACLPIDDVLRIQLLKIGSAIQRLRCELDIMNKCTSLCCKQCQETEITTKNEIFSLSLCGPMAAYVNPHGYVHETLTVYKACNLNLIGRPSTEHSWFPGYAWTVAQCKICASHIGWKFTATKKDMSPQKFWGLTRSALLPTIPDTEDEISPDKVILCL
Chain of CRBN/DDB1 (Q16531 whole entry partner, species assumed): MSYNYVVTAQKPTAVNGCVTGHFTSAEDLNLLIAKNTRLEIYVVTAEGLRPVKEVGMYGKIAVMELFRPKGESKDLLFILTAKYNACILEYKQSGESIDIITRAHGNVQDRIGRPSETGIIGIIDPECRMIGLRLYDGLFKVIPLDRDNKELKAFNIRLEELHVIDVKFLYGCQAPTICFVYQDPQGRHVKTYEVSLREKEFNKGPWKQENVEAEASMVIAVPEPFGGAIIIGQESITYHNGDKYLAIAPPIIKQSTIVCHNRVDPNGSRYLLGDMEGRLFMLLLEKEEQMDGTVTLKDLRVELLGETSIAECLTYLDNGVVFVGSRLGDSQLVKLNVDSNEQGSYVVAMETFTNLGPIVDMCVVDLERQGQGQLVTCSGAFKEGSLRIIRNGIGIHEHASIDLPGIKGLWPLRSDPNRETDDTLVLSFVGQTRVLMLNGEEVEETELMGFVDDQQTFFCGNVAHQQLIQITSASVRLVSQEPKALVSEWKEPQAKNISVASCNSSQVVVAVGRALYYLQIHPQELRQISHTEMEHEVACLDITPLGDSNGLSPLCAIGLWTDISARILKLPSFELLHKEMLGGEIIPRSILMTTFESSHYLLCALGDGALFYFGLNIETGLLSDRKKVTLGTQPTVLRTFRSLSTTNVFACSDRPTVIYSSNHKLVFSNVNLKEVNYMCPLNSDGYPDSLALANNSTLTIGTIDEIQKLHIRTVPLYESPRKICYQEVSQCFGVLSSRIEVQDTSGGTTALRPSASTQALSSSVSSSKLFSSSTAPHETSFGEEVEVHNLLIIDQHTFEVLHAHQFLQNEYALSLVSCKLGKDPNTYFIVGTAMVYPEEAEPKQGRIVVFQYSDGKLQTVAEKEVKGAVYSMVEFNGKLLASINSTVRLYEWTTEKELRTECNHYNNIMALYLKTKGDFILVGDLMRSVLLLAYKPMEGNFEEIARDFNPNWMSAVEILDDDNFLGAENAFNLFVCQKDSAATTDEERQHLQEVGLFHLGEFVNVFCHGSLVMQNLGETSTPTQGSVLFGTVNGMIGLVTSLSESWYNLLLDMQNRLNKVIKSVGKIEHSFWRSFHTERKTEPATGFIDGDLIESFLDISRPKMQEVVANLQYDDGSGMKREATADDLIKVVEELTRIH

SMILES	IC50 (CRBN/DDB1)	Dmax (ER in MCF-7 cells; [1])	DC50 (ER in MCF-7 cells; 16 hrs treatment)	DC50 (ER in T47D cells; 16 hrs treatment)	Dmax (ER in T47D cells; [2])	Dmax (ER in MCF-7 cells; [3])	Dmax (ER in T47D cells; [4])	MCF7 Dmax (ER in MCF-7 cells; 16 hrs treatment)	T47D Dmax (ER in T47D cells; [5])
COc1cc(N2CCC(CN3CCN4c5ccc6c(c5OC[C@H]4C3)CN([C@H]3CCC(=O)NC3=O)C6=O)CC2)c(F)cc1[C@H]1c2ccc(O)cc2CC[C@H]1c1ccccc1 [Compound A39, (S)-3-((R)-7-((1-(2-fluoro-4-((1R,2R)-6-hydroxy-2-phenyl-1,2,3,4-tetrahydronaphthalen-1-yl)-5-methoxyphenyl)piper-idin-4-yl)methyl)-1-oxo-1,3,5,5a,6,7,8,9-octahydro-2H-pyrazino[1′,2′:4,5][1,4]oxazino [2,3-e]isoindol-2-yl)piperidine-2,6-dione]	50 to 500 nM	25 to 50%	10 to 100 nM	1 to 10 nM	50 to 75%				
O=C1CC[C@H](Nc2ccc(C3CCN(C[C@@H]4COC5(CCN(c6ccc([C@H]7c8ccc(O)cc8CC[C@H]7c7ccccc7)cc6)CC5)C4)CC3)cc2)C(=O)N1 (single isomer, unassigned) [Compound A50]	50 to 500 nM	50 to 75%	< 1 nM	< 1 nM	50 to 75%				
O=C1CC[C@H](N2Cc3cc4c(cc3C2=O)OC[C@H]2CN(C[C@H]3COC5(CCN(c6ccc([C@H]7c8ccc(O)cc8CC[C@H]7c7ccccc7)cc6)CC5)C3)CCN42)C(=O)N1 (single isomer, unassigned) [Compound A19]	50 to 500 nM	50 to 75%	1 to 10 nM	1 to 10 nM	50 to 75%				
O=C1CC[C@@H](Nc2ccc(C3CCN(C[C@@H]4COC5(CCN(c6ccc([C@@H]7c8ccc(O)cc8CC[C@@H]7c7ccccc7)cc6)CC5)C4)CC3)cc2)C(=O)N1 (single isomer, unassigned) [Compound A29]	50 to 500 nM	25 to 50%	10 to 100 nM	10 to 100 nM	25 to 50%				
COc1cc(N2CCC(CN3CCC4(CC3)COc3c4ccc4c3CN([C@H]3CCC(=O)NC3=O)C4=O)CC2)ccc1[C@H]1c2ccc(O)cc2CC[C@H]1c1ccccc1 [Compound A36, (R)-3-(1′-((1-(4-((1S,2S)-6-hydroxy-2-phenyl-1,2,3,4-tetrahydronaphthalen-1-yl)-3-methoxyphenyl)piperidin-4-yl)methyl)-6-oxo-6,8-dihydro-2H,7H-spiro[furo[2,3-e]iso-indole-3,4′-piperidin]-7-yl)-piperidine-2,6-dione formate]	< 50 nM		< 1 nM	< 1 nM		50 to 75%	25 to 50%		
COc1cc(N2CCC(CN3CC[C@@]4(c5ccc(N[C@H]6CCC(=O)NC6=O)cc5)C(C3)C4(F)F)CC2)ccc1[C@@H]1c2ccc(O)cc2CC[C@@H]1c1ccccc1 (stereo partly drawn) [Compound A92, (3S)-3-((4-((1R)-7,7-difluoro-3-((1-(4-((1S,2S)-6-hydroxy-2-phenyl-1,2,3,4-tetrahydronaph-thalen-1-yl)-3-methoxyphenyl)-piperidin-4-yl)methyl)-3-azabi-cyclo[4.1.0]heptan-6-yl)phen-yl)amino)piperidine-2,6-dione]	> 5000 nM		< 1 nM	1 to 10 nM		25 to 50%	25 to 50%		
O=C1CC[C@H](N2Cc3cc4c(cc3C2=O)OCC42CCN(CC3CC4(CCN(c5ccc([C@@H]6c7ccc(O)cc7CC[C@@H]6c6ccccc6)cn5)CC4)C3)CC2)C(=O)N1 [Compound A126, (S)-3-(1′-((7-(5-((1S,2S)-6-hydroxy-2-phenyl-1,2,3,4-tetra-hydronaphthalen-1-yl)pyridin-2-yl)-7-azaspiro[3.5]nonan-2-yl)methyl)-7-oxo-5,7-dihydro-2H,6H-spiro[furo[2,3-f]iso-indole-3,4′-piperidin]-6-yl)-piperidine-2,6-dione]	50 to 500 nM		< 1 nM	< 1 nM				B (“B”: >50 and <75%)	A (“A”: >=75%)
COc1cc(N2CC3(CC(CN4CCN5c6ccc7c(c6OC[C@H]5C4)CN([C@H]4CCC(=O)NC4=O)C7=O)CO3)C2)ccc1[C@@H]1c2ccc(O)cc2CC[C@@H]1c1ccccc1 (single isomer, unassigned) [Compound A48]	50 to 500 nM	50 to 75%	1 to 10 nM	1 to 10 nM	50 to 75%				
O=C1CC[C@H](N2Cc3c(ccc4c3OCC43CCN(CC4CC5(CCN(c6ccc([C@H]7c8ccc(O)cc8CC[C@H]7c7ccccc7)cc6F)CC5)C4)CC3)C2=O)C(=O)N1 [Compound A148, (S)-3-(1′-((7-(2-fluoro-4-((1S,2R)-6-hydroxy-2-phenyl-1,2,3,4-tetrahydronaphthalen-1-yl)phenyl)-7-azaspiro[3.5]nonan-2-yl)methyl)-6-oxo-6,8-dihydro-2H,7H-spiro[furo[2,3-e]isoindole-3,4′-piperidin]-7-yl)piperidine-2,6-dione]	< 50 nM		< 1 nM	< 1 nM		50 to 75%	> 75%		
O=C1CCC(Nc2ccc(C34CCN(C[C@@H]5COC6(CCN(c7ccc([C@@H]8c9ccc(O)cc9CC[C@@H]8c8ccccc8)cc7)CC6)C5)CC3C4(F)F)cc2)C(=O)N1 (stereo partly drawn) [Compound A45, (3S)-3-((4-(7,7-difluoro-3-(((R)-8-(4-((1R,2S)-6-hydroxy-2-phenyl-1,2,3,4-tetrahydro-naphthalen-1-yl)phenyl)-1-oxa-8-azaspiro[4.5]decan-3-yl)-methyl)-3-azabicyclo[4.1.0]heptan-6-yl)phenyl)amino)-piperidine-2,6-dione]	> 5000 nM		> 100 nM	> 100 nM		< 25%	< 25%		
COc1cc(N2CCC3(CC2)CC(CN2CCN4c5ccc6c(c5OC[C@H]4C2)CN([C@H]2CCC(=O)NC2=O)C6=O)CO3)ccc1[C@@H]1c2ccc(O)cc2CC[C@@H]1c1ccccc1 (stereo partly drawn) [Compound A53, (3S)-3-((5aR)-7-((8-(4-((1S, 2S)-6-hydroxy-2-phenyl-1,2,3,4-tetrahydronaphthalen-1-yl)-3-methoxyphenyl)-1-oxa-8-azaspiro[4.5]decan-3-yl)-methyl)-1-oxo-1,3,5,5a,6,7,8,9-octahydro-2H-pyrazino[1′,2′: 4,5][1,4]oxazino[2,3-e]isoindol-2-yl)piperidine-2,6-dione]	< 50 nM	25 to 50%	10 to 100 nM	1 to 10 nM	50 to 75%				
O=C1CC[C@H](N2Cc3cc4c(cc3C2=O)OC[C@H]2CN(C[C@H]3COC5(CCN(c6ccc([C@@H]7c8ccc(O)cc8CC[C@@H]7c7ccccc7)cc6)CC5)C3)CCN42)C(=O)N1 (single isomer, unassigned) [Compound A17]	500 to 5000 nM	25 to 50%	1 to 10 nM	1 to 10 nM	25 to 50%				
O=C1CC[C@H](N2Cc3c(ccc4c3OC[C@H]3CN(CC5COC6(C5)CN(c5ccc([C@@H]7c8ccc(O)cc8CC[C@@H]7c7ccccc7)cc5)C6)CCN43)C2=O)C(=O)N1 (single isomer, unassigned) [Compound A7]	500 to 5000 nM		< 1 nM	< 1 nM				B (“B”: >50 and <75%)	B (“B”: >50 and <75%)
COc1cc(N2CCC(CN3CC[C@@]4(c5ccc(N[C@@H]6CCC(=O)NC6=O)cc5)C(C3)C4(F)F)CC2)ccc1[C@@H]1c2ccc(O)cc2CC[C@@H]1c1ccccc1 (mixture of isomers) [Compound A88, (3R)-3-((4-((1R)-7,7-difluoro-3-((1-(4-((1SR,2SR)-6-hydroxy-2-phenyl-1,2,3,4-tetra-hydronaphthalen-1-yl)-3-meth-oxyphenyl)piperidin-4-yl)meth-yl)-3-azabicyclo[4.1.0]heptan-6-yl)phenyl)amino)piperidine-2,6-dione]	> 5000 nM		1 to 10 nM	< 1 nM		50 to 75%	25 to 50%		
O=C1CCC(NC(=O)c2ccc3c(n2)OC[C@H]2CN(CC4CCN(c5ccc([C@H]6c7ccc(O)cc7CC[C@H]6c6ccccc6)cc5)CC4)CCN32)C(=O)N1 (stereo in doubt) [Compound A4, (4aR)-N-(2,6-dioxopiperidin-3-yl)-3-((1-(4-((1S,2R)-6-hydroxy-2-phenyl-1,2,3,4-tetrahydronaphthalen-1-yl)-phenyl)piperidin-4-yl)meth-yl)-1,2,3,4,4a,5-hexahydro-pyrazino[1,2-d]pyrido[2,3-b] [1,4]oxazine-8-carboxamide]	500 to 5000 nM	50 to 75%	1 to 10 nM	< 1 nM	50 to 75%				
O=C1CC[C@@H](Nc2ccc(C3CCN(C[C@@H]4COC5(CCN(c6ccc([C@H]7c8ccc(O)cc8CC[C@H]7c7ccccc7)cc6)CC5)C4)CC3)c(F)c2)C(=O)N1 (single isomer, unassigned) [Compound A60]	50 to 500 nM	25 to 50%	> 100 nM	> 100 nM	< 25%				
COc1cc(N2CCC3(CC2)CC(CN2CCC(c4ccc(N[C@H]5CCC(=O)NC5=O)c(F)c4)CC2)C3)ccc1[C@@H]1c2ccc(O)cc2CC[C@@H]1c1ccccc1 (single isomer, unassigned) [Compound A109]	500 to 5000 nM	25 to 50%	< 1 nM	< 1 nM	50 to 75%				
O=C1CC[C@H](NC(=O)c2ccc3c(n2)OC[C@H]2CN(C[C@@H]4COC5(CCN(c6ccc([C@H]7c8ccc(O)cc8CC[C@H]7c7ccccc7)cc6)CC5)C4)CCN32)C(=O)N1 (single isomer, unassigned) [Compound A16]	500 to 5000 nM	50 to 75%	1 to 10 nM	< 1 nM	50 to 75%				
